According to US20130029981A1, “COMPOUNDS, COMPOSITIONS, AND METHODS FOR CONTROLLING BIOFILMS” (Katholieke Universiteit Leuven, priority 2009, published 2013):
pIC50: −log10 of the molar value. Like-named read-outs stand apart in the source and are kept apart here.

What was measured:
S. Typhimurium ATCC14028 = assay: Static peg assay for prevention of biofilm formation (Calgary device, crystal violet); assay type: cell-based, Salmonella Typhimurium
In short: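 Calgary 96-peg device, ca. 10^6 cells of ATCC14028 per well in TSB 1/20 for 24 h at 25° C (or 48 h at 16° C, medium and compound renewed at 24 h), or in CFA broth for 24 h at 37° C, static, with two-fold compound dilutions. Crystal violet stain, acetic acid extraction, OD570. IC50 from 2–3 independent experiments.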

[1] = system: Pseudomonas aeruginosa PA14; assay: as above; assay type: cell-based
Method: (§1) Evaluation of the biofilm inhibitory activity of some substituted 2-amino-1H-imidazoles of the invention was carried out by growing up biofilms of S. Typhimurium ATCC14028 or SL1344 or Pseudomonas aeruginosa PA14 in the presence of different concentrations (1/2 dilution series) of biofilm inhibitors, by using the Calgary biofilm device. After an incubation period of 24 hours at 25° C. or 37° C. or 48 hours at 16° C. the biofilms were visualized by crystal violet staining. In the next step the stain was extracted from the biofilm with 30% acetic acid. The absorbance of the resolubilized stain at 570 nm is a measure of the amount of biofilm formed.
The device used for Pseudomonas aeruginosa biofilm formation is the same platform carrying polystyrene pegs as described above for Salmonella Typhimurium.
Two-fold serial dilutions of the compounds in 100 μl liquid broth per well were prepared in the microtiter plate. Subsequently, an overnight culture of P. aeruginosa PA14 (grown up in TSB medium) was diluted 1:100 into liquid broth and 100 μl was added to each well of the microtiter plates, resulting in a total amount of 200 μl medium per well. The pegged lid was placed on the microtiter plate and the plate was incubated for 24 hours at 25° C., 30° C. or 37° C. without shaking. During this incubation period biofilms were formed on the surface of the pegs. The liquid broth used for the tests at 25° C. was TSB 1/20. The tests at 37° C. were performed in CFA and/or LBNS broth. During incubation at 30° C. and 37° C. the plates were placed in a humidity controlled container to prevent evaporation of the growth medium. Quantification of biofilm formation was performed similarly as described previously for the S. Typhimurium biofilm assays.
as §1, with “imidazo[1,2-a]pyrimidinium bromide salts” for “2-amino-1H-imidazoles”
as §1, with “substituted imidazo[1,2-a]-pyrimidinium bromide and perchlorate salts produced according to examples 3 and 5” for “substituted 2-amino-1H-imidazoles of the invention”, “C.” for “C. or 37° C. or 48 hours at 16° C.”, “nm was taken as” for “nm is”

[2] = 25° C., 24 hours, Table 15, read-out: (1) IC50 (biofilm inhibition)
[3] = 25° C., Table 17, read-out: S. Typhimurium IC50 (biofilm formation)
[4] = 25° C., 24 hours, Table 15, read-out: (2) IC50 (biofilm inhibition)
[5] = 25° C., Table 17, read-out: P. aeruginosa IC50 (biofilm formation)
[6] = 25° C., Table 18, read-out: S. Typhimurium IC50 (biofilm formation)
[7] = 25° C., Table 18, read-out: P. aeruginosa IC50 (biofilm formation)
[8] = S. Typhimurium ATCC 14028, 25° C., read-out: S. Typhimurium IC50 (biofilm formation)
[9] = P. aeruginosa PA14, 25° C., read-out: P. aeruginosa IC50 (biofilm formation)

CCCCCCCCN1c2nccc[n+]2CC1(O)c1ccc(-c2ccc([N+](=O)[O-])cc2)cc1 (stereo not shown) [Compound 53]
pIC50 (S. Typhimurium ATCC14028; [2]): 4.51 | pIC50 (S. Typhimurium ATCC14028; [3]): 4.51 | pIC50 [1, 4]: 3.93 | pIC50 [1, 5]: 3.67

CCCCCCCCN1c2nccc[n+]2CC1(O)c1ccc(S(C)(=O)=O)cc1 (stereo not shown) [Compound 54]
pIC50 (S. Typhimurium ATCC14028; [2]): 4.22 | pIC50 (S. Typhimurium ATCC14028; [3]): 4.22 | pIC50 [1, 4]: 4.94 | pIC50 [1, 5]: 4.00

CCCCCCCCN1c2nccc[n+]2CC1(O)c1ccc(-c2ccc(-c3ccccc3)cc2)cc1 (stereo not shown) [Compound 55]
pIC50 (S. Typhimurium ATCC14028; [2]): ~4.28 | pIC50 (S. Typhimurium ATCC14028; [3]): ~4.28 | pIC50 [1, 4]: 4.57 | pIC50 [1, 5]: 3.47

CCCCCCCCN1c2nccc[n+]2CC1(O)c1cccc(Br)c1 (stereo not shown) [Compound 56]
pIC50 (S. Typhimurium ATCC14028; [2]): 5.15 | pIC50 (S. Typhimurium ATCC14028; [3]): 5.15 | pIC50 [1, 4]: ~4.88 | pIC50 [1, 5]: 4.54

OC1(c2ccccc2)C[n+]2cccnc2N1C1CCC1 (stereo not shown) [Compound 57]
pIC50 (S. Typhimurium ATCC14028; [6]): 3.31 | pIC50 [1, 7]: < 3.40

OC1(c2ccccc2)C[n+]2cccnc2N1C1CCCCC1 (stereo not shown) [Compound 58]
pIC50 (S. Typhimurium ATCC14028; [6]): 3.86 | pIC50 [1, 7]: 4.06

OC1(c2ccccc2)C[n+]2cccnc2N1C1CCCCCC1 (stereo not shown) [Compound 59]
pIC50 (S. Typhimurium ATCC14028; [2]): 4.07 | pIC50 (S. Typhimurium ATCC14028; [6]): 4.07 | pIC50 [1, 4]: 5.24 | pIC50 [1, 7]: 3.60

OC1(c2ccccc2)C[n+]2cccnc2N1C1CCCCCCC1 (stereo not shown) [Compound 60]
pIC50 (S. Typhimurium ATCC14028; [2]): 4.23 | pIC50 (S. Typhimurium ATCC14028; [6]): 4.23 | pIC50 [1, 4]: 5.33 | pIC50 [1, 7]: 3.75

OC1(c2ccc(Cl)cc2)C[n+]2cccnc2N1C1CCC1 (stereo not shown) [Compound 62]
pIC50 (S. Typhimurium ATCC14028; [6]): 3.92 | pIC50 [1, 7]: 3.43

OC1(c2ccc(Cl)cc2)C[n+]2cccnc2N1C1CCCC1 (stereo not shown) [Compound 63]
pIC50 (S. Typhimurium ATCC14028; [6]): 4.38 | pIC50 [1, 7]: 3.79

OC1(c2ccc(Cl)cc2)C[n+]2cccnc2N1C1CCCCCC1 (stereo not shown) [Compound 65]
pIC50 (S. Typhimurium ATCC14028; [2]): 4.55 | pIC50 (S. Typhimurium ATCC14028; [6]): 4.55 | pIC50 [1, 4]: 4.20 | pIC50 [1, 7]: 4.12

OC1(c2ccc(Cl)cc2)C[n+]2cccnc2N1C1CCCCCCC1 (stereo not shown) [Compound 66]
pIC50 (S. Typhimurium ATCC14028; [2]): 4.90 | pIC50 (S. Typhimurium ATCC14028; [6]): 4.90 | pIC50 [1, 4]: 4.81 | pIC50 [1, 7]: 4.64

OC1(c2ccc(Cl)cc2)C[n+]2cccnc2N1C1CCCCCCCCCCC1 (stereo not shown) [Compound 67]
pIC50 (S. Typhimurium ATCC14028; [6]): 5.25 | pIC50 [1, 7]: 5.17

Nc1nc(-c2ccccc2)c[nH]1 [Compound 81]
pIC50 (S. Typhimurium ATCC14028; [8]): 3.89 | pIC50 [1, 9]: 4.14

CC(C)Nc1nc(-c2ccccc2)c[nH]1 [Compound 82]
pIC50 (S. Typhimurium ATCC14028; [8]): < 3.10 | pIC50 [1, 9]: 3.58

CCCCNc1nc(-c2ccccc2)c[nH]1 [Compound 83]
pIC50 (S. Typhimurium ATCC14028; [8]): 4.60 | pIC50 [1, 9]: 4.50

CC(C)CNc1nc(-c2ccccc2)c[nH]1 [Compound 84]
pIC50 (S. Typhimurium ATCC14028; [8]): 5.31 | pIC50 [1, 9]: 5.92

Nc1nc(-c2ccc(Cl)cc2)c[nH]1 [Compound 85]
pIC50 (S. Typhimurium ATCC14028; [8]): 4.80 | pIC50 [1, 9]: 5.46

CC(C)CNc1nc(-c2ccc(Cl)cc2)c[nH]1 [Compound 86]
pIC50 (S. Typhimurium ATCC14028; [8]): 5.70 | pIC50 [1, 9]: 6.05

CCCCCNc1nc(-c2ccc(Cl)cc2)c[nH]1 [Compound 87]
pIC50 (S. Typhimurium ATCC14028; [8]): < 3.40 | pIC50 [1, 9]: ~5.20

CCCCCCCCNc1nc(-c2ccc(Cl)cc2)c[nH]1 [Compound 88]
pIC50 (S. Typhimurium ATCC14028; [8]): < 3.40 | pIC50 [1, 9]: ~5.80

CNc1nc(-c2ccc([N+](=O)[O-])cc2)c[nH]1 [Compound 91]
pIC50 (S. Typhimurium ATCC14028; [8]): 3.77 | pIC50 [1, 9]: 4.25

CCNc1ncc(-c2ccc([N+](=O)[O-])cc2)[nH]1 [Compound 92]
pIC50 (S. Typhimurium ATCC14028; [8]): 3.77 | pIC50 [1, 9]: 3.98

CCCCNc1ncc(-c2ccc([N+](=O)[O-])cc2)[nH]1 [Compound 93]
pIC50 (S. Typhimurium ATCC14028; [8]): 3.15 | pIC50 [1, 9]: < 3.10

CC(C)CNc1ncc(-c2ccc([N+](=O)[O-])cc2)[nH]1 [Compound 94]
pIC50 (S. Typhimurium ATCC14028; [8]): 5.42 | pIC50 [1, 9]: 4.64

CCCCCCCCNc1ncc(-c2ccc([N+](=O)[O-])cc2)[nH]1 [Compound 95]
pIC50 (S. Typhimurium ATCC14028; [8]): 4.96 | pIC50 [1, 9]: ~4.60

Nc1ncc(-c2ccc(F)cc2)[nH]1 [Compound 96]
pIC50 (S. Typhimurium ATCC14028; [8]): 4.07 | pIC50 [1, 9]: 4.82
